Assay results published in BindingDB's records for doi:10.1021/acs.jmedchem.9b02101 (Kyorin Pharmaceutical, 2020).

Legend:
[1] = Agonist activity at FPR2 in human HL-60 cells assessed as reduction in chemoattractant induced chemotaxis by luminescence cell viability assay
[2] = Agonist activity at FPR2 in mouse peritoneal macrophages assessed as stimulation of phagocytosis preincubated for 15 mins followed by FITC labeled zymosan addition and measured after 45 mins by Trypan blue staining based fluorescence assay

Compound `COc1cc(F)c([C@@H]2CNC(=O)[C@H]2NC(=O)Nc2ccccc2)c(F)c1` has an IC50 [1] of 57 nM and an EC50 [2] of under 1 nM.
